Test results as given in the METLIN SMRT retention time set (Domingo-Almenara et al. 2019).

Assay: gradient 5% acetonitrile 3 min, to 50% in 2 min, to 85% in 15 min, held 3 min, 100 µL/min
Conditions: column: Zorbax Extend-C18 2.1 x 50 mm; eluents: water / acetonitrile, 0.1% formic acid
Method in brief: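 Retention times of pure standards were taken from adduct peaks that were selected by computer and manually inspected. Over 3 months, mixtures of ~100 molecules were run by HPLC–quadrupole time-of-flight mass spectrometry in positive and negative ionization mode. The Zorbax Extend-C18 column (2.1 × 50 mm, 1.8 μm) ran at 100 μL/min in water and acetonitrile, each containing 0.1% formic acid, with 40 μL dead volume and 900 μL dwell volume.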

Row | SMILES | RP-LC retention time
1 | Cc1cc(C)c(NC(=O)Cn2cnc(C)c(C)c2=O)c(C)c1 | 674 s
2 | Cc1cccc(CCNC(=S)Nc2ccc3nc(N4CCN(C)CC4)cc(C)c3c2)c1 | 618 s
3 | Cc1cc(=O)n(CC(=O)N2CCOCC2)c(N2CCOCC2)n1 | 534 s
4 | COc1ccccc1-c1nc2nccc(-c3ccsc3)n2n1 | 872 s
5 | CCCN1C(=O)CCc2c(C)ncnc21 | 611 s
6 | CCCCOC(=O)C1=C(C)NC(=O)NC1c1ccc(OCCC)c(OC)c1 (centres undefined) | 884 s
7 | CCOc1ccc(-c2cc3c(=O)n(Cc4nc(-c5ccc(Cl)cc5)no4)ncn3n2)cc1 | 1140 s
8 | CCCN1CCN(C(=O)CCCn2c3ccccc3c3cnn(C)c(=O)c32)CC1 | 600 s
9 | CC(C)(C)n1nnnc1C1CC2(CCOCC2)C(=O)N1Cc1cccc(C(F)(F)F)c1 (centres undefined) | 862 s
10 | Fc1ccc(C2Cn3nnc(-c4nc(-c5ccccc5)no4)c3CO2)cc1 (centres undefined) | 1120 s
11 | CCN1C(=O)c2ccccc2Oc2ccc(C(=O)N3CCN(c4cccc(C)c4)C(C)C3)cc21 (centres undefined) | 1020 s
12 | Cc1c(Br)cncc1C(=O)O | 620 s
13 | COCCN1C(=O)CCc2cc(NC(=O)c3ccc(Cl)s3)ccc21 | 958 s
14 | O=[N+]([O-])c1cccc2cn[nH]c12 | 767 s
15 | Cc1ccsc1C(=O)Nc1ccc(-c2nc(Cn3cccn3)c(C)o2)cc1 | 884 s
16 | COCCCNC(=O)C1CCCN(c2cnc3nc(C)c(C)nc3c2)C1 (centres undefined) | 619 s
17 | CS(=O)(=O)N1CCN(Cc2cc3nc(-c4cccc5[nH]ncc45)nc(N4CCOCC4)c3s2)CC1 | 706 s
18 | CCOC(=O)c1nc(Nc2cc(OC)ccc2OC)c2ccccc2n1 | 911 s
19 | CCc1nnc(NC(=O)CSc2nnc(NC(=O)NC(C)(C)C)s2)s1 | 672 s
20 | Cc1nc2ccc(N)nc2nc1C | 594 s

Row | SMILES | RP-LC retention time
21 | CCOC(=O)c1c(C)c(CCC(=O)N2CCC(C)CC2)n(C)c1C | 950 s
22 | CCc1nnc(-c2ccc3ccn(CC(=O)Nc4cccc(OC)c4)c3c2)o1 | 839 s
23 | CCCN(C(=O)CC(=O)OC)c1nc(-c2ccc(C)cc2)cs1 | 1160 s
24 | COc1ccc(NC(=O)Cn2cc(C(=O)C3CC3)c3ccccc32)cc1 | 864 s
25 | CC(C)c1cc(C(=O)Nc2ccccc2F)no1 | 1020 s
26 | CCOC(=O)c1ccccc1NC(=O)Cn1c(=O)n(-c2ccc(F)cc2)c(=O)c2c1cc(C)n2C | 1010 s
27 | O=C(Nc1cccc(C(F)(F)F)c1)N(Cc1ccsc1)C1CC1 | 1030 s
28 | COC[C@@H](c1ccc(C(F)(F)F)cc1)N1CCN(C2(C)CCN(C(=O)c3c(C)ncnc3C)CC2)C[C@@H]1C | 744 s
29 | CCOc1ccc(N(C)S(=O)(=O)c2ccsc2C(=O)NCCCc2ccccc2)cc1 | 1210 s
30 | Cn1c(=O)c2c(-c3ccc(Cl)cc3)c(C#N)c(N)nc2n(C)c1=O | 814 s
31 | Cc1cc(N2CCN(C)CC2)nc2ccc(NC(=S)NCCN3CCc4ccccc4C3)cc12 | 538 s
32 | O=C(NC1CC(=O)N(C2CC2)C1)c1cc2ccccc2[nH]1 (centres undefined) | 638 s
33 | CCCN(CC1CCOC1)C(=O)Nc1ccccc1CC (centres undefined) | 823 s
34 | COc1ccc(Cl)cc1NC(=O)CSc1ccc(-c2ccccn2)nn1 | 934 s
35 | CCC(=O)N1CCN(c2nc(CC(C)C)c3c(c2C#N)CC(C)(C)OC3)CC1 | 1110 s
36 | Cc1cc(-c2nnc(-c3ccc(F)cc3)o2)c(C)n1CC(=O)Nc1ccc2c(c1)OCCO2 | 916 s
37 | COc1cc(NC(=O)NC(C)C(=O)N2CCc3ccccc32)cc(OC)c1 (centres undefined) | 817 s
38 | O=C(CCC(=O)OCC(=O)c1ccccc1)Nc1ccc2ccccc2c1 | 891 s
39 | O=C(CCc1nnc2c3cc(-c4ccccc4)nn3ccn12)N1CCN(C(=O)c2ccco2)CC1 | 679 s

Now from value to compound:

Row | RP-LC retention time | SMILES
40 | 777 s | CC(C)C(=O)N1CCCCCCNC(=O)[C@@H]2CCCC[C@@H]21
41 | 894 s | O=C(c1cc(F)ccc1Cl)N1CCN(C(=O)c2nnn3c2COC(c2ccccc2)C3)CC1 (centres undefined)
42 | 654 s | COC(=O)c1cnn(-c2ccc(C(=O)N3CCCC3)cc2)c1N
43 | 1120 s | Cc1ccc(NC(=O)N2CCCC(CC(=O)N3CCC(Cc4ccccc4)CC3)C2)cc1 (centres undefined)
44 | 999 s | Cc1ccc(S(=O)(=O)N2CCC(n3c(-c4ccco4)nc4cccnc43)C2)cc1Cl (centres undefined)
45 | 1250 s | Cc1ccc(-c2nnc(-c3ccc(Cl)c(S(=O)(=O)N4CCCCC4)c3)o2)cc1
46 | 781 s | O=C(CCC1CCN(S(=O)(=O)c2cccc(F)c2)CC1)NC1CC1
47 | 917 s | O=C(Nc1cccc(C(F)(F)F)c1)N1CC(c2nc(-c3cccs3)no2)C1
48 | 936 s | Cc1cccc(Cn2c(CN3CCC(C(=O)NC4CCCCCCC4)CC3)cc3ccccc32)c1
49 | 859 s | CCS(=O)(=O)c1ccc2c(c1)N(Cc1nc(-c3ccc4c(c3)OCO4)no1)C(=O)CO2
50 | 894 s | COc1ccc(C2(C(=O)N3CCCCCCNC(=O)[C@@H]4CCCC[C@@H]43)CC2)cc1
51 | 650 s | O=C(NCCCN1CCCC1)C1CCN(c2nccnc2Sc2ccccc2)CC1
52 | 719 s | O=S(=O)(Nc1cccn2c(C3CCC3)nnc12)c1cccc2nsnc12
53 | 722 s | O=c1ccc(-n2cccn2)nn1CCNS(=O)(=O)c1ccc(F)c(Cl)c1
54 | 789 s | O=C(Nc1cc(-c2ccccn2)no1)c1ccccc1Br
55 | 1130 s | Brc1cccc(-c2nc3cnccn3c2NC2CCCCC2)c1
56 | 723 s | CNC(=O)N1CC(c2nc(-c3ccc(F)cc3)no2)C2(CCOCC2)C1 (centres undefined)
57 | 762 s | Cc1cccc(NS(=O)(=O)c2c[nH]c3ncccc23)c1C
58 | 934 s | Cc1ccccc1Cn1c(CN2CCC(C(=O)NC3CCCCCCC3)CC2)cc2ccccc21
59 | 1010 s | CC1CCN(C(=O)C2=NN(Cc3ccccc3)c3ccccc3S2(=O)=O)CC1
60 | 639 s | COc1ccc(OC)c(NS(=O)(=O)c2cc3n(c2)CCCNC3=O)c1
61 | 1060 s | Cc1cc(C)n(-c2cc(N3CCCC(C(=O)Nc4cccc(C(F)(F)F)c4)C3)ncn2)n1 (centres undefined)
62 | 735 s | Cc1ccc(-c2noc(-c3cccc(S(=O)(=O)N4CCN(C)CC4)c3)n2)cc1
63 | 705 s | CCCNC(=O)c1cccc(-c2nc3cccnc3n2CCC)c1
64 | 532 s | O=C(NCCc1cccnc1)C1CCc2nc(N3CCCC3)ncc2C1 (centres undefined)

Row | RP-LC retention time | SMILES
65 | 691 s | CN(C)CCNC(=O)C1CCN(c2nc3ccc(-c4cccc(F)c4)nc3s2)CC1
66 | 857 s | O=C(Nc1nc(-c2ccc3c(c2)OCCO3)cs1)c1ccc2ncsc2c1
67 | 992 s | Cc1cc(S(=O)(=O)N2CCc3c(c(-c4nnc(-c5ccc(F)cc5)o4)nn3C)C2)ccc1F
68 | 575 s | O=C(NCC1CCCO1)c1ccc2ncnc(N3CCCC3)c2c1 (centres undefined)
69 | 748 s | CCNC(=O)C1CCc2sc(C(=O)N3CCCCCC3)cc2C1 (centres undefined)
70 | 787 s | CCC(C)NC(=O)N1CCCN(C2=NS(=O)(=O)C(c3ccc(F)cc3)=C2C)CC1 (centres undefined)
71 | 651 s | COc1ccc(C(=O)N2CCC(c3nc4cccnc4n3C)C2)cc1F (centres undefined)
72 | 760 s | CCc1cccc(NS(=O)(=O)c2cc(-c3[nH]ncc3C(=O)N3CCCC3)oc2C)c1
73 | 663 s | O=C(CN1C(=O)C(C(=O)N2CCCC2)Sc2ccccc21)NC1CCN(Cc2ccccc2)CC1 (centres undefined)
74 | 905 s | O=C(Nc1ccc2c(c1)OCCO2)C1CCCN(S(=O)(=O)Cc2ccc(F)cc2)C1 (centres undefined)
75 | 859 s | COc1ccccc1NC(=O)Cn1nc2c(Oc3ccc(Cl)cc3)nccn2c1=O
76 | 770 s | O=C(NCC1CCCO1)C1CCCN(c2ncccc2-c2noc(C3CCC3)n2)C1 (centres undefined)
77 | 719 s | O=C(c1cnc2ccccc2n1)N1CCN(Cc2nc(-c3ccc(F)cc3)cs2)CC1
78 | 852 s | Cc1ccc(CC(=O)N2CCC3(CC2)NC(=O)c2cc(C)ccc2N3C)cc1
79 | 586 s | Cn1c(=O)c(N2CCN(C(=O)c3ccc(F)cc3F)CC2)nc2ccncc21
80 | 684 s | CCOc1ccc(C(=O)Nc2ccc(-c3cn4ccc(C)nc4n3)cc2)cc1OCC
81 | 664 s | CN(C)c1cccc(C(=O)NC2CCN(c3cc(-c4ccccc4)[nH]n3)C2)c1 (centres undefined)
82 | 766 s | O=C(Nc1cnccn1)c1ccc(S(=O)(=O)N2CCCCCC2)cc1
83 | 830 s | CCOC(=O)C1CCCN(S(=O)(=O)c2cccs2)C1 (centres undefined)
84 | 738 s | CC(C)(C)C(=O)Nc1ccc(C(=O)NCCNC(=O)Nc2ccccc2Cl)cc1
85 | 1060 s | Cc1ccccc1NC(=O)C1CCN(S(=O)(=O)c2cc(-c3noc(C4CCC4)n3)cs2)CC1
86 | 996 s | COc1ccc(-c2noc(C3CCCN3C(=O)c3ccc(C)s3)n2)cc1 (centres undefined)
87 | 722 s | O=C(NC1CCN(C(=O)c2cc(-c3cccs3)[nH]n2)CC1)C1CCCCC1
88 | 608 s | O=C(c1ccnc(N2CCNC(c3ccccc3)C2)c1)N1CCN(c2ncccn2)CC1 (centres undefined)
89 | 900 s | COc1ccc(CNC(=O)C2(C)CCCN(S(=O)(=O)c3ccccc3F)C2)cc1 (centres undefined)
